Measured values reported in ChEMBL document CHEMBL1909046, “DrugMatrix in vitro pharmacology data”.

Experiments:
[1] = biological target: T1, Alpha-1D adrenergic receptor (Homo sapiens, UniProt P25100); format: cell membranes, HEK293, Membrane; details: hek293; also: in other assays of this panel Not Active means under 50% inhibition at 10 µM
T1 sequence (P25100 whole entry): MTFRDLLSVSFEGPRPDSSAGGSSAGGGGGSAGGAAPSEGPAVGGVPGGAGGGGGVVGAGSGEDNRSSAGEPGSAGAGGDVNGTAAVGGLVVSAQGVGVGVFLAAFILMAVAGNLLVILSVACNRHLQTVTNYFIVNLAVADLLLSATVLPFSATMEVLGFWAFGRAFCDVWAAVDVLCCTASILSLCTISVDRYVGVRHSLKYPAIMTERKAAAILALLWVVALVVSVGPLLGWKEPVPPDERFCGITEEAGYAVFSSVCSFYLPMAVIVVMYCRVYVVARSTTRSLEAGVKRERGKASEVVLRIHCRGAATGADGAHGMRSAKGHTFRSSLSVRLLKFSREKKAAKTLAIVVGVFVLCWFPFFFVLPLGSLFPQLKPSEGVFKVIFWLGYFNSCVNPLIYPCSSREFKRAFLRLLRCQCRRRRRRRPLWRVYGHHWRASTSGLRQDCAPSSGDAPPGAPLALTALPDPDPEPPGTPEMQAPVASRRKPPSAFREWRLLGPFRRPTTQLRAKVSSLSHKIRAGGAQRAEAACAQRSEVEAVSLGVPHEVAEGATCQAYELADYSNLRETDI

[2] = biological target: Beta-1 adrenergic receptor (Homo sapiens, UniProt P08588); experiment: DRUGMATRIX: Adrenergic beta1 radioligand binding (ligand: [125I] Cyanopindolol); format: cell membranes, CHO-K1, Membrane; details: cho-k1; Not Active = under 50% inhibition at 10 µM
Sequence of Beta-1 adrenergic receptor (P08588 whole entry): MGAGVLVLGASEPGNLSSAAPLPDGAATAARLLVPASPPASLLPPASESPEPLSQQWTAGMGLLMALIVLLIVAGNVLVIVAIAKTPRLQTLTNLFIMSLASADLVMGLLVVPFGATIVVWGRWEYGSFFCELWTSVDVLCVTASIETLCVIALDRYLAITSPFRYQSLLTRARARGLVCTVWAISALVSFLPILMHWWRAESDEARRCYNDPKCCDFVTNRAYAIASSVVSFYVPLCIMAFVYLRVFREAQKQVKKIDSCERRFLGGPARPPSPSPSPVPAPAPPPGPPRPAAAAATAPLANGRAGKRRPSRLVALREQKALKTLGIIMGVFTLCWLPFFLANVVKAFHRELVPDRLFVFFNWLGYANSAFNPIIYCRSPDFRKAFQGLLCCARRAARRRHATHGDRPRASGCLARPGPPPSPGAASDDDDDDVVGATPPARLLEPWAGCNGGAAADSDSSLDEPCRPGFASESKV

[3] = biological target: Beta-3 adrenergic receptor (Homo sapiens, UniProt P13945); experiment: DRUGMATRIX: Adrenergic beta3 radioligand binding (ligand: [125I] Cyanopindolol); format: cell membranes, HEK293, Membrane; details: hek293; Not Active = under 50% inhibition at 10 µM
Sequence of Beta-3 adrenergic receptor (P13945 whole entry): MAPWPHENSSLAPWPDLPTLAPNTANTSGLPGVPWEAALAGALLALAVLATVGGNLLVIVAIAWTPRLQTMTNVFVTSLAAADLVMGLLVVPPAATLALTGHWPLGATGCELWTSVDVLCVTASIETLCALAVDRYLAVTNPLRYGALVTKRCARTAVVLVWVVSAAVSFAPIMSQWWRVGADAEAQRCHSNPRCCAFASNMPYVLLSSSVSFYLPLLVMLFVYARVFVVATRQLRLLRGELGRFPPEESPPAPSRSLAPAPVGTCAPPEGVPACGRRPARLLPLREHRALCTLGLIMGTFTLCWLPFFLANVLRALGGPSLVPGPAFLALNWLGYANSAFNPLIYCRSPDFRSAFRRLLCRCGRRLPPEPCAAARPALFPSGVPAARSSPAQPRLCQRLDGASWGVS

[4] = biological target: Aldo-keto reductase family 1 member B1 (Rattus norvegicus, UniProt P07943); format: tissue-based, Lens of camera-type eye;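 also: inhibition of aldose reductase enzyme activity, measured with DL-glyceraldehyde as the substrate; in other assays of this panel Not Active means under 50% inhibition at 10 µM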
[5] = biological target: 5-hydroxytryptamine receptor 4 (Cavia porcellus, UniProt O70528); format: cell membranes, Dunkin-Hartley, Striatum, Membrane; also: in other assays of this panel Not Active means under 50% inhibition at 10 µM
Sequence of 5-hydroxytryptamine receptor 4 (O70528 whole entry): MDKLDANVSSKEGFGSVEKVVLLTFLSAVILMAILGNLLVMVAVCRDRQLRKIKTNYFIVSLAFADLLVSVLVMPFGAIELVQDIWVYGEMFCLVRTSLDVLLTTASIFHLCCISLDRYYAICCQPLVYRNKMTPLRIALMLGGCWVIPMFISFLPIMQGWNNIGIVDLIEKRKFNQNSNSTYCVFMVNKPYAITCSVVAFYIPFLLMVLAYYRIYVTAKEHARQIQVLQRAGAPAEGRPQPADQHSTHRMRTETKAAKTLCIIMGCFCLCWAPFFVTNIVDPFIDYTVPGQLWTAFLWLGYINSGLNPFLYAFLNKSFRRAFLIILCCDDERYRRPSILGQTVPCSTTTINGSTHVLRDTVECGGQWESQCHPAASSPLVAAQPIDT

[6] = biological target: Sigma non-opioid intracellular receptor 1 (Homo sapiens, UniProt Q99720); experiment: DRUGMATRIX: Sigma1 radioligand binding (ligand: [3H] Haloperidol); format: cell membranes, Jurkat, Membrane; details: jurkat; Not Active = under 50% inhibition at 10 µM
Sequence of Sigma non-opioid intracellular receptor 1 (Q99720 whole entry): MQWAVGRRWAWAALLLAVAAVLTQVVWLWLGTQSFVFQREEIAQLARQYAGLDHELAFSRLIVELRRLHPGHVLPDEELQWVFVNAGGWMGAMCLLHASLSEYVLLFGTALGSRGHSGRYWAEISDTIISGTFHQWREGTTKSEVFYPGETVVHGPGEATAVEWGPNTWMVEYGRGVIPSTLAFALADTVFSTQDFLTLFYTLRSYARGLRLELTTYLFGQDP

[7] = biological target: T2, Cholecystokinin receptor type A (Homo sapiens, UniProt P32238); format: cell membranes, Membrane; details: 1321-n1; also: in other assays of this panel Not Active means under 50% inhibition at 10 µM
T2 sequence (P32238 whole entry): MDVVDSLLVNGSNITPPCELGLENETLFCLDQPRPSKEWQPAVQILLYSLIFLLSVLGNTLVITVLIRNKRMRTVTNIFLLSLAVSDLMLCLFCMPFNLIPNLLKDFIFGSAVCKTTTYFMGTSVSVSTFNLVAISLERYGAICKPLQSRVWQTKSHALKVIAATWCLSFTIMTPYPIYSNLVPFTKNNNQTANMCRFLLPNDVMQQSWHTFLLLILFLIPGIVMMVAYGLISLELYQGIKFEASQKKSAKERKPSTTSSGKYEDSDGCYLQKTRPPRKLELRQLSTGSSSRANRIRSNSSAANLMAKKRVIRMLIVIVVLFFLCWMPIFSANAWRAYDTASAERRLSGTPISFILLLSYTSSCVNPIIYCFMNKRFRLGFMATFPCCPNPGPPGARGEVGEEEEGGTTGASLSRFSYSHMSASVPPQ

[8] = biological target: Insulin receptor (Rattus norvegicus, UniProt P15127); format: cell membranes, Wistar, Liver, Membrane; also: in other assays of this panel Not Active means under 50% inhibition at 10 µM
Sequence of Insulin receptor (P15127 27-759 limits assumed): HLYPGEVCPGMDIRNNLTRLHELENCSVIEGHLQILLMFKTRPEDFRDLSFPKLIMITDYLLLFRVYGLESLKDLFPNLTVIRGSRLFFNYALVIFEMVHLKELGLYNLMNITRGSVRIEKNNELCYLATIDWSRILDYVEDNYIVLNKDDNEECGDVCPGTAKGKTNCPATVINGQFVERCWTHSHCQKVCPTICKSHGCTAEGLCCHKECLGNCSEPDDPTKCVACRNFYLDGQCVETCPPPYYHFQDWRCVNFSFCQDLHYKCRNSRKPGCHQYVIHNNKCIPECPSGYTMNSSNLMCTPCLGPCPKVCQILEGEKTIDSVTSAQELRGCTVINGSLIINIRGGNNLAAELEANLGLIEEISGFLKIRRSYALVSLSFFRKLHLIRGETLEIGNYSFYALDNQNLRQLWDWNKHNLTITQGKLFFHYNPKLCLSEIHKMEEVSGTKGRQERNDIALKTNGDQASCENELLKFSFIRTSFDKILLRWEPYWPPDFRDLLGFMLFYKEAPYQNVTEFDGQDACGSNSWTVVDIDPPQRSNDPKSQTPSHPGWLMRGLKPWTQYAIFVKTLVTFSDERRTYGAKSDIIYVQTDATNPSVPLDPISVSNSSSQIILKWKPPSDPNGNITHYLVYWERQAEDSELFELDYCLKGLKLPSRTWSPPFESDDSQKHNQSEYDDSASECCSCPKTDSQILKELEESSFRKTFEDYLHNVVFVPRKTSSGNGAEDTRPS
Sequence of Insulin receptor (P15127 764-1383 limits assumed): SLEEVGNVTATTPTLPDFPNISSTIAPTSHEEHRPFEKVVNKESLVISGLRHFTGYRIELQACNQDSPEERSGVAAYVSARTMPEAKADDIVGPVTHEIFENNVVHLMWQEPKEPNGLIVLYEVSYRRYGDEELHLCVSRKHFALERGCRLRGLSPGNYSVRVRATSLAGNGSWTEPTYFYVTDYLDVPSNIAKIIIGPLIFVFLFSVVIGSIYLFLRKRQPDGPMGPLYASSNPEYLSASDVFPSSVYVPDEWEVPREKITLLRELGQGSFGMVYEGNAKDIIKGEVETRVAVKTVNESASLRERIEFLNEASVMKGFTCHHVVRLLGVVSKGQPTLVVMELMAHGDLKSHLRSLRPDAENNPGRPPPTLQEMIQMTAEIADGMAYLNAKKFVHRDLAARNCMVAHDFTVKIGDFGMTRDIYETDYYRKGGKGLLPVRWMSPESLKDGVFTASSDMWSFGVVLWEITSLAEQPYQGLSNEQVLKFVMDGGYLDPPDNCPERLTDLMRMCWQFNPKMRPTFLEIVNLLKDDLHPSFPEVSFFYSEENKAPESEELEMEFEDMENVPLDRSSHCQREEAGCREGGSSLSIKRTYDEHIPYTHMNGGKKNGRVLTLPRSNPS

[9] = biological target: Melanocortin receptor 4 (Homo sapiens, UniProt P32245); format: cell membranes, Membrane; details: hek293; also: in other assays of this panel Not Active means under 50% inhibition at 10 µM
Sequence of Melanocortin receptor 4 (P32245 whole entry): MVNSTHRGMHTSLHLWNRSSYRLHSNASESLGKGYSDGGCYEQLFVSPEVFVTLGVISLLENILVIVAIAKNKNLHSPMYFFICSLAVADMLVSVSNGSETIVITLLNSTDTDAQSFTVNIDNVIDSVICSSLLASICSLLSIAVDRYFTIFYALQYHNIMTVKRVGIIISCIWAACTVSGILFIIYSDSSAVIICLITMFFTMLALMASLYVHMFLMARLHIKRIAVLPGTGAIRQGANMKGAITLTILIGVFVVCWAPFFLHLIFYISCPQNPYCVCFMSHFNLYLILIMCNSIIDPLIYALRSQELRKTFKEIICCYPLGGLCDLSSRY

[10] = biological target: T3, 5-hydroxytryptamine receptor 1A (Rattus norvegicus, UniProt P19327); format: cell membranes, CHO-K1, Membrane; details: cho-k1; also: in other assays of this panel Not Active means under 50% inhibition at 10 µM
T3 sequence (P19327 whole entry): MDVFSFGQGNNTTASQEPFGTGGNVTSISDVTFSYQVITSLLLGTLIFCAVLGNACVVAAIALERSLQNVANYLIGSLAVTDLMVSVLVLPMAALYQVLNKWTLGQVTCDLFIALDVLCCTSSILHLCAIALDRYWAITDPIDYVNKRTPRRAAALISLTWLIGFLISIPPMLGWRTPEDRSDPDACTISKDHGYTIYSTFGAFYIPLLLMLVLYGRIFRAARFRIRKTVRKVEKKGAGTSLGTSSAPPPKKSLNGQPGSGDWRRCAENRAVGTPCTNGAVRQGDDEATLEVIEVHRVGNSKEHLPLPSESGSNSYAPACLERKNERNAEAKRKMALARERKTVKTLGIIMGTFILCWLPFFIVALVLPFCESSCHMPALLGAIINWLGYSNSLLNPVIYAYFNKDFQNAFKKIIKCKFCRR

[11] = biological target: 5-hydroxytryptamine receptor 1B (Rattus norvegicus, UniProt P28564); format: cell membranes, Wistar, Cerebral cortex, Membrane; also: in other assays of this panel Not Active means under 50% inhibition at 10 µM
Sequence of 5-hydroxytryptamine receptor 1B (P28564 whole entry): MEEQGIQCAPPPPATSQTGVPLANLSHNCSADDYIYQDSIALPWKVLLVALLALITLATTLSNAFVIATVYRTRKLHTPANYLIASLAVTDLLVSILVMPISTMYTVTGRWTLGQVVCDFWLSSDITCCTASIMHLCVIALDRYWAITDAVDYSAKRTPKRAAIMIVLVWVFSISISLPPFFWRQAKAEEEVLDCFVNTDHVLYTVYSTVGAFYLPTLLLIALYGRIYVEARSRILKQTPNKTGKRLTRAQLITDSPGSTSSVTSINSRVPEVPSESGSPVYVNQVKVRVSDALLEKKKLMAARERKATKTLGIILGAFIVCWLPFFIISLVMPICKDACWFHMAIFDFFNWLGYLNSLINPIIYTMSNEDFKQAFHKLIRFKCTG

[12] = DRUGMATRIX: Calcium Channel Type L, Benzothiazepine radioligand binding (ligand: [3H] Diltiazem); format: cell membranes, Rattus norvegicus, Wistar, Brain, Membrane; details: Not Active = under 50% inhibition at 10 µM
[13] = DRUGMATRIX: Serotonin (5-Hydroxytryptamine) 5-HT3 radioligand binding (ligand: [3H] GR-65630); format: cell membranes, Membrane; details: hek293; Not Active = under 50% inhibition at 10 µM
[14] = DRUGMATRIX: Tumor Necrosis Factor (TNF), Non-Selective radioligand binding (ligand: [125I] TNF-alpha); format: cell membranes, Membrane; details: u-937; Not Active = under 50% inhibition at 10 µM
[15] = DRUGMATRIX: Calcium Channel Type L, Phenylalkylamine radioligand binding (ligand: [3H] (-)-Desmethoxyverapamil (D-888)); format: cell membranes, Rattus norvegicus, Wistar, Brain, Membrane; details: Not Active = under 50% inhibition at 10 µM
[16] = DRUGMATRIX: GABAA, Muscimol, Central radioligand binding (ligand: [3H] Muscimol); format: cell membranes, Rattus norvegicus, Wistar, Brain, Membrane; details: Not Active = under 50% inhibition at 10 µM
[17] = DRUGMATRIX: GABAA, Flunitrazepam, Central radioligand binding (ligand: [3H] Flunitrazepam); format: cell membranes, Rattus norvegicus, Wistar, Brain, Membrane; details: Not Active = under 50% inhibition at 10 µM
[18] = DRUGMATRIX: Imidazoline I2, Central radioligand binding (ligand: [3H] Idazoxan); format: cell membranes, Rattus norvegicus, Wistar, Cerebral cortex, Membrane; details: Not Active = under 50% inhibition at 10 µM

COc1cccc(C2(O)CCCCC2CN(C)C)c1 (configuration not stated) [TRAMADOL]
Not Active: IC50 [1] | IC50 [2] | IC50 [3] | IC50 [4] | IC50 [5] | IC50 [6] | IC50 [7] | IC50 [8] | IC50 [9] | IC50 [10] | IC50 [11]

IVERMECTIN
Not Active: IC50 [1] | Ki [1] | IC50 [2] | Ki [2] | IC50 [3] | Ki [3] | IC50 [4] | Ki [4] | IC50 [12] | Ki [12] | IC50 [13] | Ki [13] | IC50 [5] | Ki [5] | IC50 [6] | Ki [6] | IC50 [14] | Ki [14] | IC50 [15] | Ki [15] | IC50 [7] | Ki [7] | IC50 [16] | Ki [16] | IC50 [17] | Ki [17] | IC50 [18] | Ki [18] | IC50 [8] | Ki [8] | IC50 [9] | Ki [9] | IC50 [10] | Ki [10] | IC50 [11] | Ki [11]

NNc1ccccc1 [PHENYLHYDRAZINE]
Not Active: IC50 [1] | IC50 [2] | IC50 [3] | IC50 [4] | IC50 [12] | Ki [12] | IC50 [13] | Ki [13] | IC50 [5] | IC50 [6] | IC50 [14] | Ki [14] | IC50 [15] | Ki [15] | IC50 [7] | IC50 [16] | Ki [16] | IC50 [17] | Ki [17] | IC50 [18] | Ki [18] | IC50 [8] | IC50 [9] | IC50 [10] | IC50 [11]

COc1ccc(C(CN(C)C)C2(O)CCCCC2)cc1 (configuration not stated) [VENLAFAXINE]
Not Active: IC50 [1] | IC50 [2] | IC50 [3] | IC50 [4] | IC50 [12] | Ki [12] | IC50 [13] | Ki [13] | IC50 [5] | IC50 [6] | IC50 [14] | Ki [14] | IC50 [15] | Ki [15] | IC50 [7] | IC50 [16] | Ki [16] | IC50 [17] | Ki [17] | IC50 [18] | Ki [18] | IC50 [8] | IC50 [9] | IC50 [10] | IC50 [11]
